Starred links: 1 amine or outer side, 2 acyl side, 3 side chain; linkers in the order of their positions; H or OH if unused. Residues, ends and D or L forms follow the SMILES beside them. Groups on a side chain read outwards from the residue. *: point of attachment. Glutaryl = O=C(CCCC(=O)[*:2])[*:1]; NHNH2 = NN*
Columns and labels:
Format in all cases: cell-based
ARPE19 cells = assay: RLuc pDNA delivery, robotic library screening, ARPE19
Hela cells = assay: RLuc pDNA delivery, robotic library screening, HeLa
Description: Cells were seeded in a 96 well plate the day before the experiment at a concentration of 60,000 cell/mL (100 μL/w) in DMEM+10% FBS+1% Gln-Abt. For robotic library screening, the delivery of pDNA encoding for the expression of Renilla luciferase gene (RLuc, pRL-CMV (Promega, #E2261)) in six different cell lines was performed. […] The mixture was shaken for 30 min at room temperature before the addition to the cells. The cell medium was aspirated, and cells were washed twice with PBS. Finally, 50 μL of the complex's solution were added to the cells and incubated for 4 h. After the incubation, the medium was replaced by 100 μL of fresh DMEM supplemented with 10% FBS. 72 hours after transfection the DMEM was removed, cells were washed once with HBSS and 90 μL of HBSS were added to each well. Cells were incubated at 37° C. for 30 minutes. Then basal luminescence levels were read in a plate reader. Immediately, 10 μL of coelenterazine h in HBSS were added to each well (5 μM final concentration) and cells were incubated at 37° C. for 10 minutes. Finally, the total luminescence measurement of the plates was performed. Amphiphile transfection efficiency was compared and normalized to Lipofectamine® 2000 efficiency (value of 1 in Tables 1-5 and 7; bold numbers). All experiments were done in triplicate.
Tables 1-7: RLuc (pDNA) or EGFP (mRNA) expression levels were normalized to Lipofectamine reagents (value=1) and expressed as fold-times signal increase. In the case of siRNA, the siRNA treated cells fluorescence was compared with siMOCK control fluorescence, while Cas9-RNP mediated knockout was measured against the fluorescence of untreated cells. In both siRNA and Cas9-RNP, values are expressed as % fluorescence reduction. Amphiphile concentration was 5 μM in all cases. All experiments were performed in triplicate.
Tables 8-13 show the mean (triplicates) luminescent intensity (RLU) measured after the transfection of RLuc pDNA by different amphiphiles at different concentrations in a variety of cell lines. Background luminescence values, accounted by untransfected control cells, were subtracted for processing.

[1] = system: ARPE19 cells expressing EGFP; assay: Cas9-RNP delivery against EGFP (gene editing, plate reader), ARPE19
Description: To generate an EGFP expressing HeLa cell line, HeLa cells were transfected with EGFP pDNA (pEGFP-C1, Clontech) and stable transfectants were selected with 400 μg/mL of G-418 (Millipore). Green clones were selected by epifluorescence microscopy and tested for EGFP expression stability through several passages. […] All other EGFP-expressing cell lines were obtained in a similar way from parent non-EGFP-expressing cell lines.
Cells expressing EGFP were seeded in a 96 well plate the day before the experiment at a concentration of 50,000 cell/mL (100 μL/w) in DMEM+10% FBS+1% Gln-Abt. For robotic library screening, the delivery of Cas9-RNP against EGFP (RNP designed to knock-out the gene encoding for the enhanced green fluorescent protein (EGFP)) was performed. For RNP assembly, 9.2 μL of crRNA and 9.2 μL of tracrRNA were mixed in 211.6 μL of Nuclease-Free Duplex Buffer (IDT), incubated for 5 min at 95° C. and slowly cooled at rt (see I. Lostalé-Seijo, et al. Peptide/Cas9 nanostructures for ribonucleoprotein cell membrane transport and gene edition, Chem. Sci., 2017). Cas9 protein was dissolved in DMEM at a final concentration of 4 μM and equal volumes of the RNA complex and Cas9 were mixed and incubated for 5 min at rt. 75 μL of the corresponding amphiphile concentrations were added to 5 μL of RNP at 2 μM. The mixture was shaken for 30 min at room temperature before the addition to the cells. The cell medium was aspirated, and cells were washed twice with PBS. Cells were covered with 30 μL of DMEM and 20 μL of the RNP/amphiphile complexes were added to the cells (final peptide concentrations=2.5, 5 and 10 μM; final Cas9-RNP concentration=50 nM) and incubated for 4 h. After the incubation, the medium was replaced by 100 μL of fresh DMEM supplemented with 10% FBS. The total EGFP fluorescence was quantified after 72 h in a plate reader (FIG. 2, Table 1 (right) and Table 6). All experiments were done in triplicate. […]
Tables 26-31 show the mean (triplicates) percentage of gene editing, accounted by GFP fluorescence intensity decrease (% of reduction), measured after the transfection of Cas9-RNP by different amphiphiles at different concentrations in a variety of cell lines. Background values, accounted by untreated control cells, were subtracted for processing.

Question: How did the “mean luminescent intensity (RLuc pDNA)” value (ARPE19 cells; Myristoleyl, 5 μM) turn out when `CC(=O)N[C@@H](CCCNC(=N)N)C(=O)N[C@@H](CCCCNC(=O)CCCC(=O)NN)C(=O)N[C@@H](Cc1c[nH]cn1)C(=O)N[C@@H](CCCNC(=N)N)C(=O)N[C@@H](CCCCNC(=O)CCCC(=O)NN)C(=O)N[C@@H](CCCCNC(=O)CCCC(=O)NN)C(=O)N[C@@H](Cc1c[nH]cn1)C(N)=O` [7.3(L-H), Ac-RK*HRK*K*H-NH2] (Ac-RK([Glutaryl-NHNH2])HRK([Glutaryl-NHNH2])K([Glutaryl-NHNH2])H-NH2) was run?
Answer: 34050 RLU

Question: What about the “mean luminescent intensity (RLuc pDNA)” value (ARPE19 cells; Myristoleyl, 10 μM) of the same compound?
Answer: 40509 RLU

Question: What about the “mean luminescent intensity (RLuc pDNA)” value (ARPE19 cells; Myristoleyl, 15 μM) of the same compound?
Answer: 13457 RLU

Question: What about the “mean luminescent intensity (RLuc pDNA)” value (ARPE19 cells; Palmitoleyl, 5 μM) of the same compound?
Answer: 111815 RLU

Question: And the “mean luminescent intensity (RLuc pDNA)” value (ARPE19 cells; Palmitoleyl, 10 μM)?
Answer: 92487 RLU

Question: And the “mean luminescent intensity (RLuc pDNA)” value (ARPE19 cells; Palmitoleyl, 15 μM)?
Answer: 55716 RLU

Question: What about the “mean luminescent intensity (RLuc pDNA)” value (ARPE19 cells; Petroselinyl, 5 μM) of the same compound?
Answer: 79286 RLU

Question: What about the “mean luminescent intensity (RLuc pDNA)” value (ARPE19 cells; Petroselinyl, 10 μM) of the same compound?
Answer: 77882 RLU

Question: What about the “mean luminescent intensity (RLuc pDNA)” value (ARPE19 cells; Petroselinyl, 15 μM) of the same compound?
Answer: 15465 RLU

Question: What about the “pDNA delivery, times better than Lipofectamine 2000” value (ARPE19 cells; palmitoleyl aldehyde) of the same compound?
Answer: 10 times

Question: What about the “pDNA delivery, times better than Lipofectamine 2000” value (ARPE19 cells; petroselinyl aldehyde) of the same compound?
Answer: 7 times

Question: What about the “mean luminescent intensity (RLuc pDNA)” value (Hela cells; HeLa, Petroselinyl, 10 μM) of the same compound?
Answer: 107063 RLU

Question: And the “mean luminescent intensity (RLuc pDNA)” value (Hela cells; Hela, Myristoleyl, 5 μM)?
Answer: 122581 RLU

Question: What about the “mean luminescent intensity (RLuc pDNA)” value (Hela cells; Hela, Myristoleyl, 10 μM) of the same compound?
Answer: 115599 RLU

Question: And the “mean luminescent intensity (RLuc pDNA)” value (Hela cells; Hela, Myristoleyl, 15 μM)?
Answer: 25022 RLU

Question: What about the “mean luminescent intensity (RLuc pDNA)” value (Hela cells; Hela, Palmitoleyl, 5 μM) of the same compound?
Answer: 226412 RLU

Question: What about the “mean luminescent intensity (RLuc pDNA)” value (Hela cells; Hela, Palmitoleyl, 10 μM) of the same compound?
Answer: 180751 RLU

Question: What about the “mean luminescent intensity (RLuc pDNA)” value (Hela cells; Hela, Palmitoleyl, 15 μM) of the same compound?
Answer: 31589 RLU

Question: And the “mean luminescent intensity (RLuc pDNA)” value (Hela cells; Hela, Petroselinyl, 5 μM)?
Answer: 282134 RLU

Question: What about the “mean luminescent intensity (RLuc pDNA)” value (Hela cells; Hela, Petroselinyl, 15 μM) of the same compound?
Answer: 13233 RLU

Question: And the “percentage of gene editing, GFP fluorescence intensity decrease (% of reduction)” value ([1]; Myristoleyl, 5 μM)?
Answer: 19%

Question: And the “percentage of gene editing, GFP fluorescence intensity decrease (% of reduction)” value ([1]; Myristoleyl, 15 μM)?
Answer: 12%

Question: And the “percentage of gene editing, GFP fluorescence intensity decrease (% of reduction)” value ([1]; Oleyl, 5 μM)?
Answer: 1%

Question: What about the “percentage of gene editing, GFP fluorescence intensity decrease (% of reduction)” value ([1]; Oleyl, 10 μM) of the same compound?
Answer: 6%

Question: And the “percentage of gene editing, GFP fluorescence intensity decrease (% of reduction)” value ([1]; Oleyl, 15 μM)?
Answer: 15%

Question: What about the “percentage of gene editing, GFP fluorescence intensity decrease (% of reduction)” value ([1]; Palmitoleyl, 5 μM) of the same compound?
Answer: 37%

Question: And the “percentage of gene editing, GFP fluorescence intensity decrease (% of reduction)” value ([1]; Palmitoleyl, 10 μM)?
Answer: 31%

Question: And the “percentage of gene editing, GFP fluorescence intensity decrease (% of reduction)” value ([1]; Petroselinyl, 5 μM)?
Answer: 18%

Question: What does the source list for “Ac-RK*LRRLLRK*-NH2 (Ac-RK(NHNH2)LRRLLRK(NHNH2)-NH2; not fully specified; printed as Ac-RK*LRRLLRK*-NH2; also: K*2,K*9: native or modified lysine (ε-amide to a linker)) [Peptide 9.2]”?
Answer: mean luminescent intensity (RLuc pDNA) (ARPE19 cells; Myristoleyl, 5 μM): −374 RLU; mean luminescent intensity (RLuc pDNA) (ARPE19 cells; Myristoleyl, 10 μM): −528 RLU; mean luminescent intensity (RLuc pDNA) (ARPE19 cells; Myristoleyl, 15 μM): −547 RLU; mean luminescent intensity (RLuc pDNA) (Hela cells; Hela, Dodecanal, 10 μM): 13156 RLU; mean luminescent intensity (RLuc pDNA) (Hela cells; Hela, Dodecanal, 15 μM): 11603 RLU; mean luminescent intensity (RLuc pDNA) (Hela cells; Hela, Myristoleyl, 5 μM): −600 RLU; mean luminescent intensity (RLuc pDNA) (Hela cells; Hela, Myristoleyl, 10 μM): −701 RLU; mean luminescent intensity (RLuc pDNA) (Hela cells; Hela, Myristoleyl, 15 μM): −707 RLU; percentage of gene editing, GFP fluorescence intensity decrease (% of reduction) ([1]; Dodecanal, 5 μM): −2%; percentage of gene editing, GFP fluorescence intensity decrease (% of reduction) ([1]; Dodecanal, 15 μM): −17%

Question: Which “mean luminescent intensity (RLuc pDNA)” value (ARPE19 cells; Dodecanal, 5 μM) does the source give for “Ac-RK*LRRK*L-NH2 (Ac-RK(NHNH2)LRRK(NHNH2)L-NH2; not fully specified; printed as Ac-RK*LRRK*L-NH2; also: K*2,K*6: native or modified lysine (ε-amide to a linker)) [Peptide 7.2]” here?
Answer: 567 RLU

Question: And the “mean luminescent intensity (RLuc pDNA)” value (ARPE19 cells; Dodecanal, 10 μM)?
Answer: 424 RLU

Question: What about the “mean luminescent intensity (RLuc pDNA)” value (ARPE19 cells; Dodecanal, 15 μM) of the same compound?
Answer: 462 RLU

Question: And the “mean luminescent intensity (RLuc pDNA)” value (ARPE19 cells; Myristoleyl, 5 μM)?
Answer: −485 RLU

Question: And the “mean luminescent intensity (RLuc pDNA)” value (ARPE19 cells; Myristoleyl, 10 μM)?
Answer: −509 RLU

Question: And the “mean luminescent intensity (RLuc pDNA)” value (ARPE19 cells; Myristoleyl, 15 μM)?
Answer: −568 RLU

Question: What about the “mean luminescent intensity (RLuc pDNA)” value (Hela cells; HeLa, Dodecanal, 5 μM) of the same compound?
Answer: 2459 RLU

Question: What about the “mean luminescent intensity (RLuc pDNA)” value (Hela cells; Hela, Myristoleyl, 5 μM) of the same compound?
Answer: −664 RLU

Question: What about the “mean luminescent intensity (RLuc pDNA)” value (Hela cells; Hela, Myristoleyl, 10 μM) of the same compound?
Answer: −678 RLU

Question: What about the “mean luminescent intensity (RLuc pDNA)” value (Hela cells; Hela, Myristoleyl, 15 μM) of the same compound?
Answer: −687 RLU

Question: What about the “percentage of gene editing, GFP fluorescence intensity decrease (% of reduction)” value ([1]; Dodecanal, 5 μM) of the same compound?
Answer: 0%

Question: And the “percentage of gene editing, GFP fluorescence intensity decrease (% of reduction)” value ([1]; Dodecanal, 10 μM)?
Answer: 0%

Question: What about the “percentage of gene editing, GFP fluorescence intensity decrease (% of reduction)” value ([1]; Myristoleyl, 5 μM) of the same compound?
Answer: 3%

Question: What about the “percentage of gene editing, GFP fluorescence intensity decrease (% of reduction)” value ([1]; Myristoleyl, 15 μM) of the same compound?
Answer: −8%
